Experimental data published in US12030940B2, “Immunotherapeutic tumor treatment method” (Nektar Therapeutics, priority 2017, dated 2024).

Tested on: B16F10 mouse melanoma tumors
Assay: Immune cells in tumor microenvironment by flow cytometry, subcutaneous B16F10 melanoma mice
Assay type: in vivo

aldesleukin
activated natural killer (NK) cells (5 and 7 days after treatment initiation): increased | ratio of CD8/Treg in the tumor (by day 7, single dose RSLAIL-2 or 5 doses aldesleukin): 18 | total and memory CD8 T cells as percentage of tumor-infiltrating lymphocytes (relative to vehicle): transient | percentage of Tregs (FoxP3+ subset of CD4) in tumor (relative to vehicle, days 5, 7, 10): modest
